Patent US20210392892A1, “COMPOSITIONS COMPRISING PYRIDINE CARBOXYLATE HERBICIDES AND ACETYL COA CARBOXYLASE (ACCASE) INHIBITOR HERBICIDES” (Corteva Agriscience LLC, priority 2018, published 2021)
Values joined by “and” are separate entries in the source; they are usually repeats but may differ in a detail not shown here. Equal entries are not always repeated.

How the values were obtained:
Assay in all cases: Greenhouse postemergence herbicidal effect (visual injury)
Format in all cases: in vivo
[1] = tested on: KCHSC, Kochia scoparia (kochia)
Source text: (§1) Seeds of the desired test plant species were planted in a 90:10% v/v (volume/volume) mixture of PRO-MIX® BX (Premier Tech Horticulture, Quakertown, Pa., USA) and PROFILE® GREENS GRADE™ (Profile Products LLC, Buffalo Grove, Ill., USA) planting mixture, which typically has a pH of 5.2 to 6.2 and an organic matter content of at least 50 percent, in plastic pots with a surface area of 103.2 square centimeters (cm^2). In some aspects, to help ensure good germination and healthy plants, a fungicide treatment and/or other chemical or physical treatment was applied. The plants were grown for 7-36 days (d) in a greenhouse with an approximate 14-hour (h) photoperiod which was maintained at about 23° C. during the day and 22° C. during the night. Nutrients and water were added on a regular basis and supplemental lighting was provided with overhead metal halide 1000-Watt lamps as necessary. The plants were employed for testing when they reached the second or third true leaf stage.
(§2) Emulsifiable concentrates of each of each pyridine carboxylate herbicide (Compound A or Compound B) were prepared at 100 grams acid equivalent per liter (g ae/L). The emulsifiable concentrates also included a safener, cloquintocet-mexyl, at 120 grams active ingredient per liter (g ai/L), unless otherwise noted below. An aliquot of each emulsifiable concentrate was placed in a 25 mL glass vial and diluted with an aqueous mixture of 1.25% (v/v) ACTIROB® B esterified rapeseed oil (Bayer Crop Science, Research Triangle Park, N.C., USA) or MSO® Concentrate with LECI-TECH® methylated soybean oil (Loveland Products, Loveland, Colo., USA) to obtain concentrated stock solutions at the highest application rate for each herbicide, based upon a 12 milliliter (mL) application volume at a rate of 187 liters per hectare (L/ha). The concentrated stock solutions were further diluted with an aqueous mixture of 1.25% v/v ACTIROB® B or MSO® Concentrate with LECI-TECH® to obtain stock solutions at reduced application rates for each herbicide. Spray solutions of the herbicide combinations (Compound A or Compound B plus ACCase inhibitor herbicide) were prepared by adding weighed amounts or aliquots of the ACCase inhibitor herbicide to the stock solutions of Compound A or Compound B to form 12-mL spray solutions in two-way combinations.
(§3) The spray solutions were applied to the plant material with an overhead Mandel track sprayer equipped with 8002E nozzles calibrated to deliver 187 L/ha over an application area of 0.503 square meters (m^2) at a spray height of 18 inches (43 centimeters (cm)) above the average plant canopy. Control plants were sprayed in the same manner with the solvent blank. All pyridine carboxylate herbicide (component a) application rates are given as “g ae/ha” and all ACCase inhibitor herbicide (component b) application rates are given as “g ai/ha.”
(§4) The treated plants and control plants were placed in a greenhouse as described above and watered by sub-irrigation to prevent wash-off of the test compounds. After 20-22 d, the condition of the test plants as compared with that of the control plants was determined visually and scored on a scale of 0 to 100 percent where 0 corresponds to no injury and 100 corresponds to complete kill.

[2] = tested on: ORYSA, Oryza sativa (common rice); details: with cloquintocet-mexyl
Source text: as §1, §2, §3, §4

[3] = tested on: VIOTR, Viola tricolor (wild pansy)
Source text: as §1, §2, §3, §4

[4] = tested on: LOLMG, Lolium multiflorum subsp. gaudini (annual ryegrass); details: with cloquintocet-mexyl
Source text: as §1, §2, §3, §4

[5] = tested on: BRAPP, Brachiaria platyphylla (broadleaf signalgrass); details: with cloquintocet-mexyl
Source text: as §1, §2, §3, §4

[6] = tested on: STEME, Stellaria media (chickweed)
Source text: as §1, §2, §3, §4

[7] = tested on: BRSNN, Brassica napus (spring rape); details: with cloquintocet-mexyl
Source text: as §1, §2, §3, §4

[8] = tested on: GLXMA, Glycine max (soybean)
Source text: as §1, §2, §3, §4

[9] = tested on: CYPDI, Cyperus difformis (small-flower flatsedge); details: with cloquintocet-mexyl
Source text: as §1, §2, §3, §4

[10] = tested on: SETFA, Setaria faberi (giant foxtail)
Source text: as §1, §2, §3, §4

[11] = tested on: SORVU, Sorghum vulgare (grain sorghum)
Source text: as §1, §2, §3, §4

[12] = tested on: CIRAR, Cirsium arvense (Canadian thistle)
Source text: as §1, §2, §3, §4

[13] = tested on: RUMOB, Rumex obtusifolius (broad-leaf dock)
Source text: as §1, §2, §3, §4

[14] = tested on: BRSNW, Brassica napus (winter rape)
Source text: as §1, §2, §3, §4

[15] = tested on: LEFCH, Leptochloa chinensis (Chinese sprangletop)
Source text: as §1, §2, §3, §4

[16] = 7.5 g ae/ha, with cloquintocet-mexyl
[17] = 7.5 g ae/ha, without cloquintocet-mexyl
[18] = 10 g ae/ha, with cloquintocet-mexyl
[19] = 10 g ae/ha, without cloquintocet-mexyl

N#CCOC(=O)c1nc(-c2ccc3cc[nH]c3c2F)c(F)c(N)c1Cl [Compound A, cyanomethyl 4-amino-3-chloro-5-fluoro-6-(7-fluoro-1H-indol-6-yl)pyridine-2-carboxylate]
% visual injury, Obs [1, 16]: 63%
% visual injury, Obs [1, 17]: 73%
% visual injury, Obs [1, 18]: 70%
% visual injury, Obs [1, 19]: 88%
% visual injury, Obs ([1]; KCHSC, Compound A 7.5 g/ha, Fluazifop 0 g/ha): 73%
% visual injury, Obs ([1]; KCHSC, Compound A 10 g/ha, Fluazifop 0 g/ha): 88%
% visual injury, Obs ([2]; 7.5 g ae/ha): 0%
% visual injury, Obs ([2]; 10 g ae/ha): 0%
% visual injury, Obs [3, 17]: 8%
% visual injury, Obs [3, 19]: 15%
% visual injury, Obs ([3]; VIOTR, Compound A 7.5 g/ha, Fluazifop 0 g/ha): 8%
% visual injury, Obs ([3]; VIOTR, Compound A 10 g/ha, Fluazifop 0 g/ha): 15%
% visual injury, Obs ([4]; 7.5 g ae/ha): 0%
% visual injury, Obs ([4]; 10 g ae/ha): 3%
% visual injury, Obs ([5]; 7.5 g ae/ha): 43%
% visual injury, Obs ([5]; 10 g ae/ha): 68%
% visual injury, Obs [6, 16]: 90%
% visual injury, Obs [6, 17]: 73%
% visual injury, Obs [6, 18]: 85%
% visual injury, Obs [6, 19]: 88%
% visual injury, Obs ([6]; STEME, Compound A 7.5 g/ha, Fluazifop 0 g/ha): 73%
% visual injury, Obs ([6]; STEME, Compound A 10 g/ha, Fluazifop 0 g/ha): 88%
% visual injury, Obs ([7]; 7.5 g ae/ha): 23%
% visual injury, Obs ([7]; 10 g ae/ha): 45%
% visual injury, Obs [8, 17]: 85%
% visual injury, Obs [8, 19]: 85%
% visual injury, Obs ([8]; GLXMA, Compound A 7.5 g/ha, Fluazifop 0 g/ha): 85%
% visual injury, Obs ([8]; GLXMA, Compound A 10 g/ha, Fluazifop 0 g/ha): 85%
% visual injury, Obs ([9]; 7.5 g ae/ha): 60%
% visual injury, Obs ([9]; 10 g ae/ha): 72%
% visual injury, Obs [10, 16]: 0%
% visual injury, Obs [10, 18]: 0%
% visual injury, Obs ([10]; SETFA, Compound A 7.5 g/ha, Fluazifop 0 g/ha): 0%
% visual injury, Obs ([10]; SETFA, Compound A 7.5 g/ha, Haloxyfop-R-methyl 0 g/ha): 63%
% visual injury, Obs ([10]; SETFA, Compound A 7.5 g/ha, Quizalofop-P-ethyl 0 g/ha): 63%
% visual injury, Obs ([10]; SETFA, Compound A 10 g/ha, Fluazifop 0 g/ha): 0%
% visual injury, Obs ([10]; SETFA, Compound A 10 g/ha, Haloxyfop-R-methyl 0 g/ha): 60%
% visual injury, Obs ([10]; SETFA, Compound A 10 g/ha, Quizalofop-P-ethyl 0 g/ha): 60%
% visual injury, Obs [11, 17]: 0%
% visual injury, Obs [11, 19]: 0%
% visual injury, Obs ([11]; SORVU, Compound A 7.5 g/ha, Fluazifop 0 g/ha): 0%
% visual injury, Obs ([11]; SORVU, Compound A 10 g/ha, Fluazifop 0 g/ha): 0%
% visual injury, Obs [12, 17]: 40%
% visual injury, Obs [12, 19]: 28%
% visual injury, Obs ([12]; CIRAR, Compound A 7.5 g/ha, Fluazifop 0 g/ha): 40%
% visual injury, Obs ([12]; CIRAR, Compound A 10 g/ha, Fluazifop 0 g/ha): 28%
% visual injury, Obs [13, 16]: 13%
% visual injury, Obs [13, 17]: 38%
% visual injury, Obs [13, 18]: 8%
% visual injury, Obs [13, 19]: 35%
% visual injury, Obs ([13]; RUMOB, Compound A 7.5 g/ha, Fluazifop 0 g/ha): 38%
% visual injury, Obs ([13]; RUMOB, Compound A 10 g/ha, Fluazifop 0 g/ha): 35%
% visual injury, Obs [14, 17]: 50%
% visual injury, Obs [14, 19]: 65%
% visual injury, Obs ([14]; BRSNW, Compound A 7.5 g/ha, Fluazifop 0 g/ha): 50%
% visual injury, Obs ([14]; BRSNW, Compound A 10 g/ha, Fluazifop 0 g/ha): 65%
% visual injury, Obs [15, 17]: 0%
% visual injury, Obs [15, 19]: 0% and 5%
% visual injury, Obs ([15]; LEFCH, Compound A 7.5 g/ha, Fluazifop 0 g/ha): 0%
% visual injury, Obs ([15]; LEFCH, Compound A 7.5 g/ha, Haloxyfop-R-methyl 0 g/ha): 0%
% visual injury, Obs ([15]; LEFCH, Compound A 7.5 g/ha, Quizalofop-P-ethyl 0 g/ha): 0%
% visual injury, Obs ([15]; LEFCH, Compound A 10 g/ha, Fluazifop 0 g/ha): 0%
% visual injury, Obs ([15]; LEFCH, Compound A 10 g/ha, Haloxyfop-R-methyl 0 g/ha): 5%
% visual injury, Obs ([15]; LEFCH, Compound A 10 g/ha, Quizalofop-P-ethyl 0 g/ha): 5%
